According to US20260007758A1, “SO[…]-2 RECEPTOR (SST2R) NON-PEPTIDE DRUG CONJUGATES AND USES THEREOF” (Crinetics Pharmaceuticals, Inc., priority 2024, published 2026):
pEC50: −log10 of the molar value.

Columns and labels:
Type in all cases: cell-based
[1] = tested on: NCI-H524 human small cell lung cancer cells; assay: H524 assay: inhibition of cell proliferation (CellTiter Glo); details: 2 h treatment, washout, additional 70 h incubation
How it was run: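 Proliferation was measured by CellTiter Glo 70 h after a washout that followed a 2 h pulse of NDC. Doses were an 11-point, two-fold dilution series from 1 uM. IC50 was fitted with a four-parameter model to luminescence-based % inhibition relative to control cells.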

[2] = biological target: T1, human somatostatin receptor subtype 2 (Homo sapiens, UniProt P30874); assay: Functional assay for SSTR2 agonists (HTRF cAMP); details: CHO-K1 cells stably expressing human SST2; NKH477-stimulated cAMP; 20 min at 37 C; read-out: hSST2 cAMP Avg EC50
T1 construct: expressed in transfected cells
T1 sequence (P30874 whole entry): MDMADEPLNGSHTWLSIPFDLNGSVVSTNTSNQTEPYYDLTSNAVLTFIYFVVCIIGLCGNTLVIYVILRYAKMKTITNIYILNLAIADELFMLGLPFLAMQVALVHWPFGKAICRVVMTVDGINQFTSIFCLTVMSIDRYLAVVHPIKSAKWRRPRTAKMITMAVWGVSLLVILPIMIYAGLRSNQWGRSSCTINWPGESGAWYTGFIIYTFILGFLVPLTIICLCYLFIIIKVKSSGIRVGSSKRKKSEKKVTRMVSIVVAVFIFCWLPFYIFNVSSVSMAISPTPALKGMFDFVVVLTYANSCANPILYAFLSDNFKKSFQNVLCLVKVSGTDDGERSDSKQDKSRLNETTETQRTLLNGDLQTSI
How it was run: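 Agonist activity read as fall in intracellular cAMP: HTRF 665/620 nm ratio regressed to a cAMP standard curve, EC50 fitted. Stable human SSTR2 CHO-K1 cells exposed 20 min at 37 °C to compound, final concentrations typically 0-10,000 nM.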

SST2 = biological target: T2, SST2 (Homo sapiens, UniProt P30874); assay: PathHunter CHO-K1 SST2 Internalization Assay; details: PathHunter CHO-K1 SST2 cells; 90 min at 37 C; luminescence; read-out: Internalization EC50
T2 construct: host or cells: PathHunter CHO-K1 SST2 cells
T2 sequence (P30874 whole entry): as above
How it was run: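 Four-parameter nonlinear fits of background-corrected luminescence (duplicate means) gave IC50s. NDCs were serially diluted 1:3 over 11 points from a 10 uM final top concentration and incubated 90 min at 37 C with human SST2 CHO-K1 cells plated 48 h earlier at 2500/well. Beta-Glo read-out developed 60 min at RT.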

**Q.** With `CC[C@H](C)[C@@H]([C@@H](CC(=O)N1CCC[C@H]1[C@H](OC)[C@@H](C)C(=O)N[C@H](C)[C@@H](O)c1ccccc1)OC)N(C)C(=O)[C@@H](NC(=O)[C@H](C(C)C)N(C)C(=O)OCc1ccc(NC(=O)[C@H](CCCNC(N)=O)NC(=O)[C@@H](NC(=O)CCOCCC(=O)NCCNc2ncc(-c3cc(C)cc(F)c3)c(N3CCC(N)CC3)c2-c2nc3ccc(Cl)cc3[nH]2)C(C)C)c(O[C@@H]2O[C@H](C(=O)N(C)CC(=O)O)[C@@H](O)[C@H](O)[C@H]2O)c1)C(C)C` [Compound 216] as the molecule, how does the pEC50 [1] read?
**A.** Its pEC50 is 8.07.

**Q.** And the pEC50 [2]?
**A.** Its pEC50 is 10.12.

**Q.** What about the pEC50 (SST2) of the same molecule?
**A.** The pEC50 was 8.52.

**Q.** With `CC[C@H](C)[C@@H]([C@@H](CC(=O)N1CCC[C@H]1[C@H](OC)[C@@H](C)C(=O)N[C@H](C)[C@@H](O)c1ccccc1)OC)N(C)C(=O)[C@@H](NC(=O)[C@H](C(C)C)N(C)C(=O)OCc1ccc(NC(=O)[C@H](CCCNC(N)=O)NC(=O)[C@@H](NC(=O)CCOCCC(=O)NCCNc2ncc(-c3cc(C)cc(F)c3)c(N3CCC(N)CC3)c2-c2nc3ccc(Cl)cc3[nH]2)C(C)C)c(O[C@@H]2O[C@H](C(=O)N3CCNCC3)[C@@H](O)[C@H](O)[C@H]2O)c1)C(C)C` [Compound 222] as the molecule, how does the pEC50 [1] read?
**A.** The pEC50 was 8.72.

**Q.** And the pEC50 [2]?
**A.** Its pEC50 is 9.96.

**Q.** What about the pEC50 (SST2) of the same molecule?
**A.** Its pEC50 is 8.37.

**Q.** What does the source list for `CC[C@H](C)[C@@H]([C@@H](CC(=O)N1CCC[C@H]1[C@H](OC)[C@@H](C)C(=O)N[C@H](C)[C@@H](O)c1ccccc1)OC)N(C)C(=O)[C@@H](NC(=O)[C@H](C(C)C)N(C)C(=O)OCc1ccc(NC(=O)[C@H](CCCNC(N)=O)NC(=O)[C@@H](NC(=O)[C@@H](NC(=O)CCOCCC(=O)NCCNc2ncc(-c3cc(C)cc(F)c3)c(N3CCC(N)CC3)c2-c2nc3ccc(Cl)cc3[nH]2)c2cnn(C)c2)C(C)C)c(OCC(=O)O)c1)C(C)C` [Compound 203]?
**A.** pEC50 [1]: 7.15; pEC50 [2]: 9.96; pEC50 (SST2): 8.11

**Q.** `CC[C@H](C)[C@@H]([C@@H](CC(=O)N1CCC[C@H]1[C@H](OC)[C@@H](C)C(=O)N[C@H](C)[C@@H](O)c1ccccc1)OC)N(C)C(=O)[C@@H](NC(=O)[C@H](C(C)C)N(C)C(=O)OCc1ccc(NC(=O)[C@H](C)NC(=O)[C@@H](NC(=O)CCOCCC(=O)NCCNc2ncc(-c3cncc(C)c3)c(N3CCC(N)CC3)c2-c2nc3ccc(Cl)cc3[nH]2)C(C)C)c(O[C@@H]2O[C@H](C(=O)O)[C@@H](O)[C@H](O)[C@H]2O)c1)C(C)C` [Compound 129] was tested. Which pEC50 [1] did it give?
**A.** The pEC50 was 5.52.

**Q.** And the pEC50 [2]?
**A.** Its pEC50 is 6.72.

**Q.** And the pEC50 (SST2)?
**A.** Its pEC50 is 6.02.

**Q.** Which results are given for `CC[C@H](C)[C@@H]([C@@H](CC(=O)N1CCC[C@H]1[C@H](OC)[C@@H](C)C(=O)N[C@H](C)[C@@H](O)c1ccccc1)OC)N(C)C(=O)[C@@H](NC(=O)[C@H](C(C)C)N(C)C(=O)OCc1ccc(NC(=O)[C@H](CCCNC(N)=O)NC(=O)[C@@H](NC(=O)CCOCCC(=O)NCCNc2ncc(-c3cc(C)cc(F)c3)c(N3CCC(N)CC3)c2-c2nc3c(F)c(F)ccc3[nH]2)C(C)C)c(O[C@@H]2O[C@H](C(=O)O)[C@@H](O)[C@H](O)[C@H]2O)c1)C(C)C` [Compound 110]?
**A.** pEC50 [1]: 6.92; pEC50 [2]: 9.00; pEC50 (SST2): 7.64

**Q.** With `CC[C@H](C)[C@@H]([C@@H](CC(=O)N1CCC[C@H]1[C@H](OC)[C@@H](C)C(=O)N[C@H](C)[C@@H](O)c1ccccc1)OC)N(C)C(=O)[C@@H](NC(=O)[C@H](C(C)C)N(C)C(=O)OCc1ccc(NC(=O)[C@H](CCCNC(N)=O)NC(=O)[C@@H](NC(=O)c2cc(NCCCCCC(=O)N(C)CC(=O)NCCNc3ncc(-c4cc(C)cc(F)c4)c(N4CCC(N)CC4)c3-c3nc4ccc(F)cc4[nH]3)cc(C(=O)NCC(=O)O)c2)C(C)C)cc1)C(C)C` [Compound 168] as the molecule, how does the pEC50 [1] read?
**A.** Its pEC50 is 7.47.

**Q.** What about the pEC50 [2] of the same molecule?
**A.** The pEC50 was 9.77.

**Q.** What about the pEC50 (SST2) of the same molecule?
**A.** The pEC50 was 8.24.

**Q.** `CC[C@H](C)[C@@H]([C@@H](CC(=O)N1CCC[C@H]1[C@H](OC)[C@@H](C)C(=O)N[C@H](C)[C@@H](O)c1ccccc1)OC)N(C)C(=O)[C@@H](NC(=O)[C@H](C(C)C)N(C)C(=O)OCc1ccc(NC(=O)[C@H](C)NC(=O)[C@@H](NC(=O)CCOCCC(=O)N(C)CC(=O)NCCNc2ncc(-c3cc(C)cc(F)c3)c(N3CCC(N)CC3)c2-c2nc3ccc(Cl)cc3[nH]2)C(C)C)c(O[C@@H]2O[C@H](C(=O)NCC(=O)O)[C@@H](O)[C@H](O)[C@H]2O)c1)C(C)C` [Compound 42] was tested. Which pEC50 [1] did it give?
**A.** Its pEC50 is 7.60.

**Q.** What about the pEC50 [2] of the same molecule?
**A.** The pEC50 was 10.00.

**Q.** And the pEC50 (SST2)?
**A.** The pEC50 was 8.42.
